Test system: Sarcoma 180
Experiment: Test 4: Test of Antitumor Effect to Sarcoma 180 by Oral Administration
Type: in vivo, ICR female mice
Details: for D: average diameter of tumor, 2 weeks / D: average diameter of tumor, 4 weeks / D: average diameter of tumor, 6 weeks / D: average diameter of tumor, 8 weeks / D: average diameter of tumor, 10 weeks: 100 mg/kg oral once a day, 10 days; for D: average diameter of tumor, 2 weeks: control 10.6; for D: average diameter of tumor, 4 weeks: control 15.2; for D: average diameter of tumor, 6 weeks: control 22.4; for D: average diameter of tumor, 8 weeks: control 31.5; for D: average diameter of tumor, 10 weeks: control 37.6; for N: number of living mice, 0 weeks / N: number of living mice, 2 weeks / N: number of living mice, 4 weeks / N: number of living mice, 6 weeks / N: number of living mice, 8 weeks / N: number of living mice, 10 weeks: 100 mg/kg oral, of 6 mice; for N: number of living mice, 0 weeks / N: number of living mice, 2 weeks / N: number of living mice, 4 weeks / N: number of living mice, 6 weeks: control 6; for N: number of living mice, 8 weeks: control 5; for N: number of living mice, 10 weeks: control 1
Protocol: To the control group, a physiological saline solution was similarly administered. The dose of the compound was 100 mg per Kg of the body weight. The diameter D (mm) of the tumor was measured, and the average value and the number N of the living mice were determined to obtain results shown in Table 4.

Structure (SMILES) | D: average diameter of tumor, 2 weeks [mm] | D: average diameter of tumor, 4 weeks [mm] | D: average diameter of tumor, 6 weeks [mm] | D: average diameter of tumor, 8 weeks [mm] | D: average diameter of tumor, 10 weeks [mm] | N: number of living mice, 0 weeks | N: number of living mice, 2 weeks | N: number of living mice, 4 weeks | N: number of living mice, 6 weeks | N: number of living mice, 8 weeks | N: number of living mice, 10 weeks
CCN(CC)C(=O)N1CCN(c2ccc(OC)cc2)CC1 [drawing 31] | 8.1 | 4.6 | 5.0 | 2.2 | 0.6 | 6 | 6 | 6 | 6 | 6 | 6
CCOC(=O)c1ccc(N2CCN(C(=O)N(CC)CC)CC2)cc1 [drawing 32] | 9.2 | 7.4 | 4.8 | 3.2 | 0 | 6 | 6 | 6 | 6 | 6 | 6
CCN(CC)C(=O)N1CCN(c2ccc(C(=O)O)cc2)CC1 [drawing 33] | 6.8 | 3.5 | 4.4 | 2.2 | 0 | 6 | 6 | 6 | 6 | 6 | 6
CCN(CC)C(=O)N1CCN(c2ccccc2)CC1 [drawing 29] | 7.8 | 6.6 | 3.7 | 0.9 | 0 | 6 | 6 | 6 | 6 | 6 | 6
CCN(CC)C(=O)N1CCN(c2ccc(Cl)cc2)CC1 [drawing 30] | 7.1 | 5.8 | 3.0 | 0 | 0 | 6 | 6 | 6 | 6 | 6 | 6
CCN(CC)C(=O)N1CCN(c2ccc(C(C)=O)cc2)CC1 [drawing 34] | 8.4 | 4.7 | 5.1 | 6.6 | 0 | 6 | 6 | 6 | 6 | 6 | 6

From patent publication US4446133A, “1-Phenyl-4-carbamoyl piperazine compounds, process for preparation thereof and utilizations thereof” (Misuitoatsu Chemicals, Inc., priority 1980, dated 1984)
